In patent US6720346B2, “Thiazole benzamide derivatives and pharmaceutical compositions for inhibiting cell proliferation” (Agouron Pharmaceuticals, Inc., priority 2001, dated 2004):
pIC50, pKi: −log10 of the molar value. Where a name gives a salt, the structure may show the parent alone.

How the values were obtained:
HCT-116 cell line = assay: Inhibition of cell growth, MTT tetrazolium salt assay; type: cell-based; conditions: for pIC50: Homo sapiens, HCT-116, 120 h, MTT, three to five days
In short: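 HCT-116 cells in McCoy's 5A were dosed 4 h after plating with compounds in 0.5% DMSO and grown 3–5 days at 37 °C. Then 0.2 mg/mL MTT was added for 4 h and formazan absorbance read at 540 nm. IC50/IC90 came from semi-log plots against DMSO-only controls.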

human CDK4/cyclin D3 = biological target: T1, human CDK4/cyclin D3 (Homo sapiens, UniProt P11802); assay: Inhibition of CDK4/cyclin D retinoblastoma kinase activity (Ki; % inhibition); type: biochemical; conditions: for pKi: apparent Ki, CDK4/cyclin D3, Rb substrate
T1 construct: made in house; host or cells: insect cells co-infected with baculovirus vectors
In short: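 Radiometric filter-binding read-out: Rb residues 386-928 phosphorylated by 5 nM CDK4/cyclin D3(1-264) from baculovirus-infected insect cells, 25 μM ATP, HEPES pH 7.4, 30 °C. Run 20 min, or 60 min for tight-binding inhibitors. Screening at 30 nM theoretical compound; apparent Ki by competitive-inhibition fitting.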

CDK2/cyclin A = biological target: T2, CDK2/cyclin A (Homo sapiens, UniProt P24941); assay: Inhibition of CDK2/cyclin A retinoblastoma kinase activity (Ki; % inhibition); type: biochemical; conditions: for pKi: apparent Ki, CDK2/cyclin A, Rb substrate
T2 construct: made in house; host or cells: CDK2: insect cells (baculovirus); cyclin A: E. coli
In short: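 Apparent Ki values came from fitting concentration-dependent activity data to competitive (or competitive tight-binding) models, and % inhibition from single 30 nM screens of library compounds. Activity was measured as ³²P/³³P incorporation from 25 μM ATP into an Rb substrate by 10 or 19 nM CDK2/delta cyclin A at 30 °C over 60–75 min, pH 7.4.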

[1] = HCT-116 cells, 0.25 μM compound

T1 sequence (P11802 whole entry): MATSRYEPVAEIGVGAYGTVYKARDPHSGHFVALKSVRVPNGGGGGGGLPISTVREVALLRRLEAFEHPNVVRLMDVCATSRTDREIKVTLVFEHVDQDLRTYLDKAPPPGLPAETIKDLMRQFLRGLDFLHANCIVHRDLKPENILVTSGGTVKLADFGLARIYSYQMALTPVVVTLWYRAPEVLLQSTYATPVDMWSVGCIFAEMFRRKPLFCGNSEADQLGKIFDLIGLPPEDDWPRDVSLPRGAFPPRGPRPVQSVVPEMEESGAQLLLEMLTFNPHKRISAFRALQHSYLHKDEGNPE
T1 sequence (P30281 1-264 partner limits assumed): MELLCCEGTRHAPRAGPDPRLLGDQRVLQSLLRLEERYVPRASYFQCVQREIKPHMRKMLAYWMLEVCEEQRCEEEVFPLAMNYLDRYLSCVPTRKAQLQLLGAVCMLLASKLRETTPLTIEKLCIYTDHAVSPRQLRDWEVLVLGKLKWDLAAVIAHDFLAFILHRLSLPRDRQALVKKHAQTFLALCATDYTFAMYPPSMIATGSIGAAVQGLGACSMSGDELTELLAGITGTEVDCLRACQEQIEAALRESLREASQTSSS

| CDK4 % Inhibition at 0.03 μM (human CDK4/cyclin D3; at 0.03 μM) | CDK2 % Inhibition at 0.03 μM (CDK2/cyclin A; at 0.03 μM) | CDK4 % Inhibition at 0.03 μM (human CDK4/cyclin D3; 0.03 μM compound) | CDK2 % Inhibition at 0.03 μM (CDK2/cyclin A; 0.03 μM compound) | Structure (SMILES) | HCT-116 % Inhibition at 0.25 μM (HCT-116 cell line; HCT-116, at 0.25 μM) | HCT-116 % Inhibition at 0.1 μM (HCT-116 cell line; HCT-116 cells, 0.1 μM compound) | HCT-116 % Inhibition at 0.25 μM (HCT-116 cell line; [1]) | other results |
| --- | --- | --- | --- | --- | --- | --- | --- | --- |
| 4% | −1% |  |  | CN(Cc1ccccc1)C(=O)c1ccc(Nc2nc(N)c(C(=O)c3c(F)cccc3F)s2)cc1 [Example G3] | 50% |  |  |  |
| 2% | −1% |  |  | CCCCN(CC#N)C(=O)c1ccc(Nc2nc(N)c(C(=O)c3c(F)cccc3F)s2)cc1 [Example G9] | 46% |  |  |  |
|  |  | 36% | 29% | Nc1nc(Nc2ccc(C(=O)NCc3cccc(Cl)c3Cl)cc2)sc1C(=O)c1c(F)cccc1F [Example G216] |  | 16% | 54% |  |
|  |  |  |  | CN(C)C1(CNC(=O)c2ccc(Nc3nc(N)c(C(=O)c4c(F)cccc4F)s3)cc2)CCC1 [Example A78, 4-{[4-Amino-5-(2,6-difluorobenzoyl)-1,3-thiazol-2-yl]amino}-N-{[1-(dimethylamino)cyclobutyl]methyl}benzamide] |  |  |  | pIC50 (HCT-116 cell line): 6.89; pKi (human CDK4/cyclin D3): 8.09; pKi (CDK2/cyclin A): 6.96 |
| 10% | −5% |  |  | N#CCCN(CC1CCCO1)C(=O)c1ccc(Nc2nc(N)c(C(=O)c3c(F)cccc3F)s2)cc1 (stereo not drawn) [Example G179] | 42% |  |  | HCT-116 % Inhibition at 0.1 μM (HCT-116 cell line; HCT-116, at 0.1 μM): 21% |
|  |  |  |  | CN1CCC[C@@]1(C)CNC(=O)c1ccc(Nc2nc(N)c(C(=O)c3c(F)cccc3F)s2)cc1 [Example A74, 4-{4-Amino-5-(2,6-difluoro-benzoyl)-thiazol-2-ylamino}-N-(1,2-dimethyl-pyrrolidin-2S-ylmethyl)-benzamide Trifluoroacetic Acid Salt] |  |  |  | pIC50 (HCT-116 cell line): 5.72; pKi (human CDK4/cyclin D3): 6.42; pKi (CDK2/cyclin A): 8.01 |
| 21% | 11% |  |  | CC(CNC(=O)c1ccc(Nc2nc(N)c(C(=O)c3c(F)cccc3F)s2)cc1)c1ccccc1 (stereo not drawn) [Example G118] | 48% |  |  | HCT-116 % Inhibition at 0.1 μM (HCT-116 cell line; HCT-116, at 0.1 μM): 5% |
|  |  | 2% | −43% | Nc1nc(Nc2ccc(C(=O)N3CCN(CCO)CC3)cc2)sc1C(=O)c1c(F)cccc1F [Example G257] |  | 33% | 51% |  |
|  |  |  |  | Nc1nc(Nc2ccc(C(=O)Nc3ccc(CCO)cc3)cc2)sc1C(=O)c1c(F)cccc1F [Example A24, 4-[4-Amino-5-(2,6-difluoro-benzoyl)-thiazol-2-ylamino]-N-[4-(2-hydroxy-ethyl)-phenyl]-benzamide] |  |  |  | pIC50 (HCT-116 cell line): 6.80; pKi (human CDK4/cyclin D3): 7.03; pKi (CDK2/cyclin A): 7.00 |
|  |  | 13% | −10% | CCN(CC)CCN1CCN(C(=O)c2ccc(Nc3nc(N)c(C(=O)c4c(F)cccc4F)s3)cc2)CC1 [Example G374] |  | 21% | 41% |  |
|  |  | 20% | 0% | N#CCCN(Cc1ccccc1)C(=O)c1ccc(Nc2nc(N)c(C(=O)c3c(F)cccc3F)s2)cc1 [Example G304] |  | 15% | 54% |  |
| 31% | 11% |  |  | CN(C)CCCNC(=O)c1ccc(Nc2nc(N)c(C(=O)c3c(F)cccc3F)s2)cc1 [Example G119] | 64% |  |  | HCT-116 % Inhibition at 0.1 μM (HCT-116 cell line; HCT-116, at 0.1 μM): 0% |
|  |  | 11% | −1% | Cc1cccc(CN(C)C(=O)c2ccc(Nc3nc(N)c(C(=O)c4c(F)cccc4F)s3)cc2)n1 [Example G315] |  | 7% | 50% |  |
| 7% | 4% |  |  | Nc1nc(Nc2ccc(C(=O)N3CCC(CCO)CC3)cc2)sc1C(=O)c1c(F)cccc1F [Example G63] | 54% |  |  |  |
| 27% | 9% |  |  | Nc1nc(Nc2ccc(C(=O)NCCCN3CCOCC3)cc2)sc1C(=O)c1c(F)cccc1F [Example G132] | 52% |  |  | HCT-116 % Inhibition at 0.1 μM (HCT-116 cell line; HCT-116, at 0.1 μM): 0% |
| 10% | 2% |  |  | Nc1nc(Nc2ccc(C(=O)N3CCc4ccccc4C3)cc2)sc1C(=O)c1c(F)cccc1F [Example G79] | 51% |  |  |  |
|  |  |  |  | CN(C)C(C)(C)CNC(=O)c1ccc(Nc2nc(N)c(C(=O)c3c(F)cccc3F)s2)cc1 [Example A12, 4-[4-Amino-5-(2,6-difluoro-benzoyl)-thiazol-2-ylamino]-N-(2-dimethylamino-2-methyl-propyl)-benzamide] |  |  |  | pIC50 (HCT-116 cell line): 6.89; pKi (human CDK4/cyclin D3): 7.70; pKi (CDK2/cyclin A): 7.04 |
|  |  | 19% | 27% | Cc1ccc(CNC(=O)c2ccc(Nc3nc(N)c(C(=O)c4c(F)cccc4F)s3)cc2)cc1Cl [Example G275] |  | 25% | 63% |  |

| CDK4 % Inhibition at 0.03 μM (human CDK4/cyclin D3; at 0.03 μM) | CDK2 % Inhibition at 0.03 μM (CDK2/cyclin A; at 0.03 μM) | CDK4 % Inhibition at 0.03 μM (human CDK4/cyclin D3; 0.03 μM compound) | CDK2 % Inhibition at 0.03 μM (CDK2/cyclin A; 0.03 μM compound) | Structure (SMILES) | HCT-116 % Inhibition at 0.25 μM (HCT-116 cell line; HCT-116, at 0.25 μM) | HCT-116 % Inhibition at 0.1 μM (HCT-116 cell line; HCT-116 cells, 0.1 μM compound) | HCT-116 % Inhibition at 0.25 μM (HCT-116 cell line; [1]) | other results |
| --- | --- | --- | --- | --- | --- | --- | --- | --- |
|  |  | −20% | −30% | CN(Cc1ccccc1Cl)C(=O)c1ccc(Nc2nc(N)c(C(=O)c3c(F)cccc3F)s2)cc1 [Example G259] |  | 21% | 46% |  |
|  |  | 11% | 35% | Nc1nc(Nc2ccc(C(=O)Nc3ccc(O)c(Cl)c3)cc2)sc1C(=O)c1c(F)cccc1F [Example G394] |  | 14% | 73% |  |
| 10% | 11% |  |  | NC(=O)C1CCCN(C(=O)c2ccc(Nc3nc(N)c(C(=O)c4c(F)cccc4F)s3)cc2)C1 (stereo not drawn) [Example G41] | 50% |  |  |  |
|  |  | 22% | 0% | CN(CCC#N)C(=O)c1ccc(Nc2nc(N)c(C(=O)c3c(F)cccc3F)s2)cc1 [Example G296] |  | 0% | 43% |  |
|  |  |  |  | C[C@@H](NC(=O)c1ccc(Nc2nc(N)c(C(=O)c3c(F)cccc3F)s2)cc1)C(=O)O [Example A65] |  |  |  | pIC50 (HCT-116 cell line): < 6.30; pKi (human CDK4/cyclin D3): 7.24; pKi (CDK2/cyclin A): 6.80 |
| 7% | 3% |  |  | CN(C(=O)c1ccc(Nc2nc(N)c(C(=O)c3c(F)cccc3F)s2)cc1)C1CCCC1 [Example G80] | 36% |  |  |  |
|  |  | 26% | 6% | Nc1nc(Nc2ccc(C(=O)N3CCN(c4ccccn4)CC3)cc2)sc1C(=O)c1c(F)cccc1F [Example C201] |  | 17% | 43% |  |
| 6% | −15% |  |  | Nc1nc(Nc2ccc(C(=O)N3CCCC3)cc2)sc1C(=O)c1c(F)cccc1F [Example G47] | 53% |  |  |  |
| 16% | 22% |  |  | Nc1nc(Nc2ccc(C(=O)N3CCC(O)C3)cc2)sc1C(=O)c1c(F)cccc1F (stereo not drawn) [Example G55] | 57% |  |  |  |
|  |  | 25% | 5% | Nc1nc(Nc2ccc(C(=O)N3CCC(O)(c4ccccc4)CC3)cc2)sc1C(=O)c1c(F)cccc1F [Example G202] |  | 20% | 48% |  |
| 15% | 21% |  |  | Nc1nc(Nc2ccc(C(=O)Nc3ccc4ncccc4c3)cc2)sc1C(=O)c1c(F)cccc1F [Example G75] | 64% |  |  |  |
| 19% | 1% |  |  | Nc1nc(Nc2ccc(C(=O)N3CCC(Cc4ccccc4)CC3)cc2)sc1C(=O)c1c(F)cccc1F [Example G194] | 49% |  |  | HCT-116 % Inhibition at 0.1 μM (HCT-116 cell line; HCT-116, at 0.1 μM): 20% |
| 16% | 6% |  |  | Nc1nc(Nc2ccc(C(=O)NC3CCCC3)cc2)sc1C(=O)c1c(F)cccc1F [Example G131] | 58% |  |  | HCT-116 % Inhibition at 0.1 μM (HCT-116 cell line; HCT-116, at 0.1 μM): 0% |
|  |  | 4% | −12% | CCCN(CCc1ccccn1)C(=O)c1ccc(Nc2nc(N)c(C(=O)c3c(F)cccc3F)s2)cc1 [Example G322] |  | 13% | 50% |  |
|  |  | 8% | 40% | Nc1nc(Nc2ccc(C(=O)Nc3cccc(O)c3)cc2)sc1C(=O)c1c(F)cccc1F [Example G378] |  | 27% | 60% |  |
| 35% | 10% |  |  | CN1CCCC1CCNC(=O)c1ccc(Nc2nc(N)c(C(=O)c3c(F)cccc3F)s2)cc1 (stereo not drawn) [Example G147] | 65% |  |  | HCT-116 % Inhibition at 0.1 μM (HCT-116 cell line; HCT-116, at 0.1 μM): 0% |
|  |  | 14% | −21% | CC(=O)N(C)C1CCN(C(=O)c2ccc(Nc3nc(N)c(C(=O)c4c(F)cccc4F)s3)cc2)C1 (stereo not drawn) [Example G348] |  | 23% | 51% |  |
